This passage reports inhibition results from paper PMC6934184, “Selective DNA-PKcs inhibition extends the therapeutic index of localized radiotherapy and chemotherapy” (The Journal of Clinical Investigation, 2019).

The test has as its target T1, CAMKK1 (CAMKKA) (Homo sapiens, UniProt Q8N5S9).
T1 construct: purchased Thermo Fisher Scientific (Life Technologies) SelectScreen
As to the kind of experiment: SelectScreen LanthaScreen. It is filed as binding. The note with it: read-out: % displacement. In short, it runs like this:
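SelectScreen broad panel; activity (Z'LYTE, Adapta) plus binding formats. ATP: Km app for CSF1R Z'LYTE; 10 for CAMK1 Adapta. Readout = % per kinase.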

T1 sequence (Q8N5S9 whole entry): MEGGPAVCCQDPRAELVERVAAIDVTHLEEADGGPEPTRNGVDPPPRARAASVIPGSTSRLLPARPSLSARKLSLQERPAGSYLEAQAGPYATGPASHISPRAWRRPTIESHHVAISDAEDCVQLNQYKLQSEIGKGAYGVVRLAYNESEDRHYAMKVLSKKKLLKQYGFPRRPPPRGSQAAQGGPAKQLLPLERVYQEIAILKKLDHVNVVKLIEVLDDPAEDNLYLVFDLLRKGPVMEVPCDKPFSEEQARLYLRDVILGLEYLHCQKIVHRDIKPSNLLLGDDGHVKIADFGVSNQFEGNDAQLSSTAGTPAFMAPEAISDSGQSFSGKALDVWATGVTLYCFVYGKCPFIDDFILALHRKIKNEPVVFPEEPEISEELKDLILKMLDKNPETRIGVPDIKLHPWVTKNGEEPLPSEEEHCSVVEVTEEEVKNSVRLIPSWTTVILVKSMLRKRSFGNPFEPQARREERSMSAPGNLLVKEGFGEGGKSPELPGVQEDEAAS

Turning to `CN(C(=O)CN1CCOCC1)c1ccc2sc3c(-c4cccc5c(=O)cc(N6CC7CCC(C6)O7)oc45)cccc3c2c1` [NU5455], the inhibition at 1 µM was -3.8%.
